Experimental data published in ChEMBL document CHEMBL3046779, “Synthesis and anti-juvenile hormone activity of ethyl 4-[(6-substituted 2,2-dimethyl-2H-chromen-7-yl)methoxy]benzoates” (2010).

What was measured:
Format in all cases: functional
Bombyx mori [1] = test: Antijuvenile hormone activity against third-instar larvae of Bombyx mori assessed as precocious metamorphosis-inducing activity at 10 ug/larva
Bombyx mori [2] = test: Antijuvenile hormone activity against third-instar larvae of Bombyx mori assessed as precocious metamorphosis-inducing activity at 40 ug/larva
Bombyx mori [3] = test: Antijuvenile hormone activity against third-instar larvae of Bombyx mori assessed as precocious metamorphosis-inducing activity at 1 ug/larva
Bombyx mori [4] = test: Antijuvenile hormone activity against allatectomized third-instar larvae of Bombyx mori assessed as number of larvae transformed into fifth-instar larvae at 40 ug/larva (reference value: 0)
Bombyx mori [5] = test: Antijuvenile hormone activity against allatectomized third-instar larvae of Bombyx mori assessed as number of larvae transformed into larval pupa intermediate at 40 ug/larva (reference value: 0)
Bombyx mori [6] = test: Antijuvenile hormone activity against allatectomized third-instar larvae of Bombyx mori assessed as number of larvae transformed into precocious pupa at 1 ug/larva (reference value: 10)
Bombyx mori [7] = test: Antijuvenile hormone activity against allatectomized third-instar larvae of Bombyx mori assessed as number of larvae transformed into larval pupa intermediate at 1 ug/larva (reference value: 0)
Bombyx mori [8] = test: Antijuvenile hormone activity against allatectomized third-instar larvae of Bombyx mori assessed as number of larvae transformed into precocious pupa at 40 ug/larva (reference value: 10)
Bombyx mori [9] = test: Antijuvenile hormone activity against allatectomized third-instar larvae of Bombyx mori assessed as number of larvae transformed into fifth instar larvae at 1 ug/larva (reference value: 0)

CCOC(=O)c1ccc(OCc2ccc3c(c2)OC(C)(C)C=C3)cc1
Activity (Bombyx mori [1]): 20% | Activity (Bombyx mori [2]): 65% | Activity (Bombyx mori [3]): 0%

CCOC(=O)c1ccc(OCc2cc3c(cc2OC)C=CC(C)(C)O3)cc1
Activity (Bombyx mori [1]): 95% | Activity (Bombyx mori [4]): 10 | Activity (Bombyx mori [2]): 100% | Activity (Bombyx mori [3]): 75% | Activity (Bombyx mori [5]): 0 | Activity (Bombyx mori [6]): 2 | Activity (Bombyx mori [7]): 6 | Activity (Bombyx mori [8]): 0 | Activity (Bombyx mori [9]): 2

CCOC(=O)c1ccc(OCc2cc3c(cc2OCC)C=CC(C)(C)O3)cc1
Activity (Bombyx mori [1]): 5% | Activity (Bombyx mori [2]): 20% | Activity (Bombyx mori [3]): 0%

CCCOc1cc2c(cc1COc1ccc(C(=O)OCC)cc1)OC(C)(C)C=C2
Activity (Bombyx mori [1]): 0% | Activity (Bombyx mori [2]): 16% | Activity (Bombyx mori [3]): 0%

CCOC(=O)c1ccc(OCc2cc3c(cc2OCc2ccccc2)C=CC(C)(C)O3)cc1
Activity (Bombyx mori [1]): 100% | Activity (Bombyx mori [2]): 100% | Activity (Bombyx mori [3]): 40%

CCOC(=O)c1ccc(OCc2cc3c(cc2OC)CCC(C)(C)O3)cc1
Activity (Bombyx mori [1]): 94% | Activity (Bombyx mori [4]): 10 | Activity (Bombyx mori [2]): 87% | Activity (Bombyx mori [3]): 46% | Activity (Bombyx mori [5]): 0 | Activity (Bombyx mori [8]): 0

CCOC(=O)c1ccc(OCc2cc3c(cc2OC)OCCO3)cc1
Activity (Bombyx mori [1]): 58% | Activity (Bombyx mori [2]): 79% | Activity (Bombyx mori [3]): 10%

CCOC(=O)c1ccc(OCc2cc3c(cc2OC)CCCC3)cc1
Activity (Bombyx mori [1]): 10% | Activity (Bombyx mori [2]): 30% | Activity (Bombyx mori [3]): 0%

CCOC(=O)c1ccc(OCc2cc(OC)c(OC)cc2OC)cc1
Activity (Bombyx mori [1]): 0% | Activity (Bombyx mori [2]): 0% | Activity (Bombyx mori [3]): 0%

COC(C)(C)CCC[C@H](C)C/C=C/C(C)=C/C(=O)OC(C)C [METHOPRENE]
Activity (Bombyx mori [6]): 0 | Activity (Bombyx mori [7]): 0 | Activity (Bombyx mori [9]): 10
